Test results published in patent US11464250B2, “Natural compound sweetener and preparation method therefor” (HUNAN HUACHENG BIOTECH INC., priority 2017, dated 2022).

What was measured:
[1] = electronic tongue tasting, intelligent gustation analysis system TS-5000Z; details: 1% (mass concentration) saccharose as standard; FIG. 1-FIG. 3
Description: Method II: an intelligent gustation analysis system TS-5000Z, namely an electronic tongue is adopted to perform tasting, an artificial fat membrane sensor technology, of which an operating principle is similar to that of human tongue gustation cells, is employed, basic gustatory sensory indexes such as bitter taste, astringent taste, sour taste, saline taste, fresh taste, sweet taste and raw material original taste of samples such as foods or drugs can be objectively and digitally evaluated, and meanwhile, a bitter aftertaste, an astringent aftertaste and a fresh aftertaste (abundance) can be further analyzed. Drawing is performed according to test data, and electronic tongue tasting test data graphs of the natural compound sweeteners in the embodiments 1-3 are separately shown in FIG. 1-FIG. 3.

[2] = times that of saccharose, cited from earlier work

C=C1C[C@@]23CC[C@H]4[C@@](C)(CCC[C@@]4(C)C(=O)O[C@@H]4O[C@H](CO)[C@@H](O)[C@H](O)[C@H]4O)[C@@H]2CC[C@]1(O[C@@H]1O[C@H](CO)[C@@H](O)[C@H](O[C@@H]2O[C@H](CO)[C@@H](O)[C@H](O)[C@H]2O)[C@H]1O[C@@H]1O[C@H](CO)[C@@H](O)[C@H](O)[C@H]1O)C3 [rebaudioside A]
electronic tongue taste profile [1]: partial to a herbal medicine taste, namely a raw-material original taste is very strong

rebaudioside C [Reb C]
sweetness relative to saccharose ([2]; from CN104144605A discussion): 300 times

C[C@H](CC[C@@H](O[C@@H]1O[C@H](CO[C@@H]2O[C@H](CO)[C@@H](O)[C@H](O)[C@H]2O)[C@@H](O)[C@H](O)[C@H]1O[C@@H]1O[C@H](CO)[C@@H](O)[C@H](O)[C@H]1O)C(C)(C)O)[C@H]1CC[C@@]2(C)[C@@H]3CC=C4[C@@H](CC[C@H](O[C@@H]5O[C@H](CO[C@@H]6O[C@H](CO)[C@@H](O)[C@H](O)[C@H]6O)[C@@H](O)[C@H](O)[C@H]5O)C4(C)C)[C@]3(C)[C@H](O)C[C@]12C [Mogroside V]
maximum sweetness relative to saccharose [2]: 420 times
